According to patent US12692254B2, “Benzimidazole inhibitors of PAD enzymes” (BRISTOL-MYERS SQUIBB COMPANY, priority 2018, dated 2026):

Target: human PAD4 (hPAD4) (Homo sapiens, UniProt Q9UM07)
Assay: RFMS human PAD4 functional assay (rapid-fire mass spectrum)
Type: biochemical
Conditions: 5 nM hPAD4 enzyme, 250 μM BAEE, 50 μM Calcium; 30 min preincubation, 90 min reaction at 37° C.
Experimental: Compounds of the present invention were assayed as inhibitors of PAD4 using the assay protocol described below.
RFMS tinman PAD4 Functional Assay:
Compounds were solubilized in 100% DMSO to achieve a 10 mM compound concentration. Compound stock solutions were stored at RT. A series of dilutions were prepared in DMSO and mixed 8 times with 20 μl, mixing volume. Final top concentration of compound in the assay is 50 μM. […] 1-90 min enzyme/substrate reaction, 30 min reaction with phenyl glyoxal at 37° C. • Stop solution: 40 μl 5% TCA in ACN
0.13 μL of compound solution was added to 13 μL of 10 nM PAD4 in assay buffer. After 30 min 13 μl of 500 μM of BAEE was added in 25 mM hepes, pH 7.5, 5 mM NaCl, 1 mM DTT, 0.2 mg/ml BS A, 0.01% CHAPS, 50 μM Calcium, 5 μM TPEN was added and the reaction incubated for 90 min at 37° C. The enzymatic reaction was quenched by addition of 15 μl of 6.1N TCA, 100% Final Concentration is 20%, 35 μl of 8.5 mM phenyl glyoxal (final concentration 4 mM) is then added and the reaction is incubated for 30 min at 37° C.
After 30 minutes the plates are spun down to remove all precipitate. The enzyme reaction was quenched with an equal volume of methanol containing internal standard (modified citrulline). Samples were loaded onto the Rapid Fire RF300 system (Agilent) wherein they were first sipped for 1000 ms and then directly loaded to a C18 separations cartridge using a mixture of acetonitrile containing 0.01% formic acid for 3000 ms desalting. The flow rate of the mobile phase was 1.5 ml/min.
The dwell time for each transition was set at 200 ms, and the ESI voltage was used at 5500 with a source temperature of 400° C. Extracted ion peaks for each transition were integrated using the Rapid Fire Integrator software. Peak area of analyte was normalized with internal standard).

Sequence of human PAD4 (hPAD4) (Q9UM07 whole entry): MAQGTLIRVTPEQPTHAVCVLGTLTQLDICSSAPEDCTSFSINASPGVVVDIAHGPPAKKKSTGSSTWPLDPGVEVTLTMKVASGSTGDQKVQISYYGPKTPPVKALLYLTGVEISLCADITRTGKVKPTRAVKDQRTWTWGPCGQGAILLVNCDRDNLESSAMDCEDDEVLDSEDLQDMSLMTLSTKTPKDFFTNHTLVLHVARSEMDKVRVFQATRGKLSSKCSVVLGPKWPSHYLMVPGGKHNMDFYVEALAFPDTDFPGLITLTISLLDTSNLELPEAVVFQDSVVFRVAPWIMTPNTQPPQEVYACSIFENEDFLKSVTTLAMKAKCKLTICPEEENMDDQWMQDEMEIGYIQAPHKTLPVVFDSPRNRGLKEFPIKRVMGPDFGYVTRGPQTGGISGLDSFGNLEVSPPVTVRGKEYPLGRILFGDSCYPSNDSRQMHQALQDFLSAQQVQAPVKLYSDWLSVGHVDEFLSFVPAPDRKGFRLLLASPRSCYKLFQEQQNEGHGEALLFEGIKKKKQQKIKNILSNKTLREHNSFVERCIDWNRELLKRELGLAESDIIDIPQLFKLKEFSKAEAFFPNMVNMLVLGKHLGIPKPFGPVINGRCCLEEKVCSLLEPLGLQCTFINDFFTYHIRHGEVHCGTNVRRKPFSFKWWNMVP

| IC50 | Structure (SMILES) |
| --- | --- |
| 37 nM | COc1cc(C(=O)N2C[C@H]3CC[C@@H]2[C@@H]3N)cc2nc(-c3cc4ccccc4n3CC3CC3)n(CC3CN(c4cncnc4C#N)C3)c12 [Example 11, 5-[3-({5-[(1R,4R,7R)-7-amino-2-azabicyclo[2.2.1]heptane-2-carbonyl]-2-[1-(cyclopropylmethyl)-1H-indol-2-yl]-7-methoxy-1H-1,3-benzodiazol-1-yl}methyl)azetidin-1-yl]pyrimidine-4-carbonitrile] |
| 18 nM | COc1cc(C(=O)N2C[C@H]3CC[C@@H]2[C@@H]3N)cc2nc(-c3cc4ccccc4n3CC3CC3)n(CC3CN(C(=O)c4ccccc4Cl)C3)c12 [Example 146, (1R,4R,7R)-2-(1-{[1-(2-chlorobenzoyl)azetidin-3-yl]methyl}-2-[1-(cyclopropylmethyl)-1H-indol-2-yl]-7-methoxy-1H-1,3-benzodiazole-5-carbonyl)-2-azabicyclo[2.2.1]heptan-7-amine] |
| 127 nM | COc1cc(C(=O)N2C[C@H](N)C[C@@H](F)C2)cc2nc(-c3cc4cccnc4n3CC3CC3)n(Cc3cn[nH]c3)c12 [Example 500, (3R,5R)-1-{2-[1-(cyclopropylmethyl)-1H-pyrrolo[2,3-b]pyridin-2-yl]-7-methoxy-1-[(1H-pyrazol-4-yl)methyl]-1H-1,3-benzodiazole-5-carbonyl}-5-fluoropiperidin-3-amine] |
| 93 nM | COc1cc(C(=O)N2CC3CCC2[C@@H]3N)cc2nc(-c3cc4ccccc4n3CC3CC3)n(CC3CN(C(=O)c4ccccc4C(=O)O)C3)c12 (stereo partly drawn) [Example 179, 2-[3-({5-[(1R,4R,7R)-7-amino-2-azabicyclo[2.2.1]heptane-2-carobnyl]-2-[1-(cyclopropylmethyl)-1H-indol-2-yl]-7-methoxy-1H-1,3-benzodiazol-1-yl}methyl)azetidine-1-carbonyl]benzoic acid] |
| 511 nM | COc1cc(C(=O)N2C[C@H]3CC[C@@H]2[C@@H]3N)cc2nc(-c3cc4cccnc4n3CC3CC3)n(CC3CN(c4cncs4)C3)c12 [Example 84, (1R,4R,7R)-2-{2-[1-(cyclopropylmethyl)-1H-pyrrolo[2,3-b]pyridin-2-yl]-7-methoxy-1-{[1-(1,3-thiazol-5-yl)azetidin-3-yl]methyl}-1H-1,3-benzodiazole-5-carbonyl}-2-azabicyclo[2.2.1]heptan-7-amine] |
| 282 nM | COc1cc(C(=O)N2CC3CCC2[C@@H]3N)cc2nc(-c3cc4cccnc4n3CC3CC3)n([C@H]3C[C@@H](N)C3)c12 (stereo partly drawn) [Example 295, (1R,4R,7R)-2-{2-[1-(cyclopropylmethyl)-1H-pyrrolo[2,3-b]pyridin-2-yl]-7-methoxy-1-[(1s,3s)-3-aminocyclobutyl]-1H-1,3-benzodiazole-5-carbonyl}-2-azabicyclo[2.2.1]heptan-7-amine] |
| 358 nM | COc1cc(C(=O)N2C[C@H]3CC[C@@H]2[C@@H]3N)cc2nc(-c3cc4cccnc4n3CC3CC3)n(CC3CN(C(C)=O)C3)c12 [Example 187, 1-[3-({5-[(1R,4R,7R)-7-amino-2-azabicyclo[2.2.1]heptane-2-carbonyl]-2-[1-(cyclopropylmethyl)-1H-pyrrolo[2,3-b]pyridin-2-yl]-7-methoxy-1H-1,3-benzodiazol-1-yl}methyl)azetidin-1-yl]ethan-1-one] |

Continued, compound first:

| Structure (SMILES) | IC50 |
| --- | --- |
| COc1cc(C(=O)N2C[C@H]3CC[C@@H]2[C@@H]3N)cc2nc(-c3csc4ccc(Cl)cc34)n(CC3CN(c4ccnc(C#N)n4)C3)c12 [Example 315, 4-[3-({5-[(1R,4R,7R)-7-amino-2-azabicyclo[2.2.1]heptane-2-carbonyl]-2-(5-chloro-1-benzothiophen-3-yl)-7-methoxy-1H-1,3-benzodiazol-1-yl}methyl)azetidin-1-yl]pyrimidine-2-carbonitrile] | 929 nM |
| COc1cc(C(=O)N2C[C@H]3CC[C@@H]2[C@@H]3N)cc2nc(-c3cc4ccccc4n3CC3CC3)n(CC3CN(C(=O)c4ccc(C)cc4)C3)c12 [Example 156, (1R,4R,7R)-2-{2-[1-(cyclopropylmethyl)-1H-indol-2-yl]-7-methoxy-1-{[1-(4-methylbenzoyl)azetidin-3-yl]methyl}-1H-1,3-benzodiazole-5-carbonyl}-2-azabicyclo[2.2.1]heptan-7-amine] | 22 nM |
| COc1cc(C(=O)N2C[C@H]3CC[C@@H]2[C@@H]3N)cc2nc(-c3cc4ccccc4n3CC3CC3)n(CCCOc3ccc(C#N)cc3)c12 [Example 260, 4-(3-{5-[(1R,4R,7R)-7-amino-2-azabicyclo[2.2.1]heptane-2-carbonyl]-2-[1-(cyclopropylmethyl)-1H-indol-2-yl]-7-methoxy-1H-1,3-benzodiazol-1-yl}propoxy)benzonitrile] | 48 nM |
| COc1cc(C(=O)N2CC3CCC2[C@@H]3N)cc2nc(-c3cc4cccnc4n3CC3CC3)n(Cc3cnn(-c4cnccn4)c3)c12 (stereo partly drawn) [Example 373, (7R)-2-{2-[1-(cyclopropylmethyl)-1H-pyrrolo[2,3-b]pyridin-2-yl]-7-methoxy-1-{[1-(pyrazin-2-yl)-1H-pyrazol-4-yl]methyl}-1H-1,3-benzodiazole-5-carbonyl}-2-azabicyclo[2.2.1]heptan-7-amine] | 34 nM |
| COc1cc(C(=O)N2CC3CCC2[C@@H]3N)cc2nc(-c3cc4ccccc4n3CC3CC3)n(CC3CN(C(=O)c4ccnc(C#N)c4)C3)c12 (stereo partly drawn) [Example 451, 4-[3-({5-[(7R)-7-amino-2-azabicyclo[2.2.1]heptane-2-carbonyl]-2-[1-(cyclopropylmethyl)-1H-indol-2-yl]-7-methoxy-1H-1,3-benzodiazol-1-yl}methyl)azetidine-1-carbonyl]pyridine-2-carbonitrile] | 47 nM |
| Cc1cc(C(=O)N2CC3CCC2[C@@H]3N)cc2nc(-c3cc4cccnc4n3CC3CC3)n(CC3CN(C(=O)c4ccccc4)C3)c12 (stereo partly drawn) [Example 458, (7R)-2-{1-[(1-benozylazetidin-3-yl)methyl]-2-[1-(cyclopropylmethyl)-1H-pyrrolo[2,3-b]pyridin-2-yl]-7-methyl-1H-1,3-benzodiazole-5-carbonyl}-2-azabicyclo[2.2.1]heptan-7-amine] | 65 nM |
| COc1cc(C(=O)N2CC3CCC2[C@@H]3N)cc2nc(-c3cc4ccccc4n3CC3CC3)n(Cc3cnn(-c4cccnc4O)c3)c12 (stereo partly drawn) [Example 384, 3-[4-({5-[(7R)-7-amino-2-azabicyclo[2.2.1]heptane-2-carbonyl]-2-[1-(cyclopropylmethyl)-1H-indol-2-yl]-7-methoxy-1H-1,3-benzodiazol-1-yl}methyl)-1H-pyrazol-1-yl]pyridin-2-ol] | 41 nM |
| COc1cc(C(=O)N2C[C@H](N)C[C@@H](F)C2)cc2nc(-c3cc4cccnc4n3CC3CC3)n(Cc3cnn(C)c3)c12 [Example 250, ((3R,5R)-3-amino-5-fluoropiperidin-1-yl)(2-(1-(cyclopropylmethyl)-1H-pyrrolo[2,3-b]pyridin-2-yl)-7-methoxy-1-((1-methyl-1H-pyrazol-4-yl)methyl)-1H-benzo[d]imidazol-5-yl)methanone] | 89 nM |
| COc1cc(C(=O)N2C[C@H]3CC[C@@H]2[C@@H]3N)cc2nc(-c3cc4cccnc4n3CC3CC3)n(CC3CN(S(=O)(=O)C4CC4)C3)c12 [Example 332, (1R,4R,7R)-2-(1-{[1-(cyclopropanesulfonyl)azetidin-3-yl]methyl}-2-[1-(cyclopropylmethyl)-1H-pyrrolo[2,3-b]pyridin-2-yl]-7-methoxy-1H-1,3-benzodiazole-5-carbonyl)-2-azabicyclo[2.2.1]heptan-7-amine] | 219 nM |
| COc1cc(C(=O)N2C[C@H]3CC[C@@H]2[C@@H]3N)cc2nc(-c3cc4cc(Cl)ccc4n3C)n(CC3CN(c4ncccn4)C3)c12 [Example 62, (1R,4R,7R)-2-[2-(5-chloro-1-methyl-1H-indol-2-yl)-7-methoxy-1-{[1-(pyrimidin-2-yl)azetidin-3-yl]methyl}-1H-1,3-benzodiazole-5-carbonyl]-2-azabicyclo[2.2.1]heptan-7-amine] | 192 nM |
| COc1cc(C(=O)N2C[C@H]3CC[C@@H]2[C@@H]3N)cc2nc(-c3cc4cccnc4n3CC3CC3)n(C3CN(C(=O)c4ccncc4)C3)c12 [Example 189, (1R,4R,7R)-2-{2-[1-(cyclopropylmethyl)-1H-pyrrolo[2,3-b]pyridin-2-yl]-7-methoxy-1-[1-(pyridine-4-carbonyl)azetidin-3-yl]-1H-1,3-benzodiazol-5-carbonyl}-2-azabicyclo[2.2.1]heptan-7-amine] | 583 nM |
| COc1cc(C(=O)N2CC3CCC2[C@@H]3N)cc2nc(-c3cc4cccnc4n3CC3CC3)n(CC3CN(C(=O)c4ccc(F)cc4F)C3)c12 (stereo partly drawn) [Example 434, (7R)-2-{2-[1-(cyclopropylmethyl)-1H-pyrrolo[2,3-b]pyridin-2-yl]-1-{[1-(2,4-difluorobenzoyl)azetidin-3-yl]methyl}-7-methoxy-1H-1,3-benzodiazole-5-carbonyl}-2-azabicyclo[2.2.1]heptan-7-amine] | 33 nM |
